Experimental data: patent US10092595B2, “Compositions and methods for treating inflammatory arthritis” (priority 2009, dated 2018)
“Also recorded” adds a separate entry of the source. Square brackets hold non-standard residues; d marks the D form. Peptide text beside a SMILES is read from it. * marks the point of attachment. Nva = CCC[C@H](N)C(=O)O; Cbz = O=C(OCc1ccccc1)*; CH2F = FC*

Key:
MH7A cells [1] = system: MH7A cells
Procedure: Cells were maintained in RPMI1640 (Invitrogen, Carlsbad, Calif., USA) supplemented with 10% heat inactivated fetal bovine serum (FBS; Invitrogen) in 5% CO2 at 37° C.
Cellular proliferation was assessed by an MTT assay (GE Healthcare, Piscataway, N.J., USA) (Cheung et al., Cancer Lett., 246:122-8 (2007)). Cells (2×10^4 cells/well in 96-well plates) were incubated overnight before treatment with controls or reagents for 2-6 days. The treated cells were then incubated with the MTT labeling solution (10 μL/well). After 4 hours of incubation, cells were lyzed, and formazan crystals solubilized overnight at 37° C. Formazean signal was detected at 570 nm (μ-Quant™ microplate spectrometer, Bio-Tek Instruments Inc., VT, USA). Data obtained were analyzed by the KC junior software (BLD Science, Garner, N.C., USA).

GP130 gene = experiment: RT-PCR and Q-PCR of gp130 gene transcription in MH7A cells; format: cell-based
Procedure: (§1) Total RNA was prepared using TRIzol (Invitrogen). Reverse transcription PCR (RT-PCR) was performed (Cheung, et al., Cancer Lett., 246:122-8 (2007)). RNA was reverse transcribed with the Superscript™ III First-Strand Synthesis System (Invitrogen) according to the manufacturer's instructions. Reaction mixes contained 1.2 μL of cDNA, 18 μL of Platinum® PCR Supermix (Invitrogen) and 200 nM of each pair of primers.
Quantitative-RT-PCR (Q-PCR) for GP130 was performed with the Assays-on-Demand™ Gene Expression System (AssayID: Hs00174360_m1, PE Biosystems, Foster City, Calif., USA) according to the manufacturer's instructions. The reaction mix contained 2 μL of cDNA, 10 μL of TaqMan® Universal PCR Master Mix, 1 μL of Assay-on-Demand™ Gene Expression Assay Mix, and RNase-free water to a volume of 20 μL. Q-PCR was performed with the ABI Prism 7700 Sequence Detector (PE Biosystems). […] Real-time PCR amplification data were collected continuously and analyzed with the ABI Prism 7700 Sequence Detector. Relative gene expression to the control calibrator, and normalized to the internal control, was calculated by the ΔΔCT method (ABI user bulletin number 2, PE Biosystem) (Cheung, et al., Cancer Lett., 246:122-8 (2007)). […]

MH7A cells [2] = experiment: Annexin V apoptosis assay (flow cytometry); format: cell-based; conditions: As2O3 5 μM, representative assay
Procedure: For apoptosis assay, 1×10^6 cells were incubated in 10-cm plates overnight, before treatment with controls or reagents for 24 hours. Cells were then trypsinized, washed twice with ice-cold phosphate buffered saline (PBS), re-suspended in 500 μL of binding buffer, and incubated on ice for 10 minutes with FITC-conjugated annexin-V and propidium iodide (PI) (Immunotech; Fullerton, Calif., USA). Apoptotic cells (annexin-V-positive, PI-negative) were enumerated by flow cytometry in triplicates (Epics, Beckman Coulter, Fullerton, Calif., USA) after appropriate color compensation. Data analysis was performed by the WinMDI 2.8 software (The Scripps Research Institute, La Jolla, Calif., USA).

gp130 [3] = experiment: Western blot of gp130 expression in MH7A cells; format: cell-based; conditions: for effect of pre-incubation with inhibitor on As2O3-induced decrease in gp130: NH4Cl 2.5 mM, MG115 10 μM, Z-VAD-FMK 25 μM, As2O3 5 μM
Procedure: (§2) Western blot analysis was performed (Pang et al., Gastroenterology, 132:1088-103 (2007)). Cell lysis and protein collection was conducted according to standard protocols. Protein samples (typically 30 μg) were separated by sodium dodecyl sulfate-polyacrylamide gel electrophoresis (SDS-PAGE) in 12% resolving gel and electro-transferred to nitrocellulose membranes (400 mA for 2 hours). After blocking with tris-buffered saline-TWEEN (TBS-T) containing 5% non-fat milk at room temperature for 30 minutes, membranes were incubated with the primary antibody and TBS-T with 5% bovine serum albumin at 4° C. overnight. The membranes were then washed thrice with TBS-T, and incubated for 1 hour at room temperature with 1:2000 horseradish peroxidase-conjugated secondary antibodies (Amersham-Pharmacia Biotechnology, Piscataway, N.J., USA). Immunoreactive bands were detected with chemiluminescence using the SuperSignal West Pico Chemiluminescent Substrate (Pierce Chemical Co., Rockford, Ill., USA), and visualized on X-ray films. Densitometric quantification of band signals was performed using ImageJ 1.36b software (National Institutes of Health, USA). All experiments were performed in triplicates.

IL-6 gene = experiment: RT-PCR of IL-6 gene transcription in MH7A cells; format: cell-based
Procedure: as §1

[4] = oral As2O3; cited from earlier work
JNK = experiment: Western blot of JNK phosphorylation in MH7A cells; format: cell-based
Procedure: as §2

[5] = oral As2O3; cited from earlier work; remark: listed apart in the source
NFκB = experiment: Western blot of NFκB expression in MH7A cells; format: cell-based; conditions: dose (24 hours) and time (5 μM) dependence
Procedure: as §2

IL-6 receptor α = experiment: Western blot of IL-6 receptor α expression in MH7A cells; format: cell-based
Procedure: as §2

gp130 [6] = experiment: Immunoprecipitation of gp130 and Western blot with anti-ubiquitin antibodies FK1 and FK2; format: cell-based; conditions: 100 μM As2O3, 0, 4 or 6 hours; FK2 positive, FK1 negative
Procedure: Immunoblot analysis was performed with gp130 ubiquitinylation. MH7A cells are incubated with 100 μM As2O3 for 0, 4 or 6 hours. Antibody to gp130 is used for immunoprecipitation (IP) of total cell lysates, followed by Western blot analysis with anti-ubiquitin antibodies FK1 and FK2. IP with non-immune rabbit serum (NIS) serves as control.
Immunoprecipitation was performed by standard procedures (Pang et al., Gastroenterology, 132:1088-103 (2007)). Cells were washed with ice-cold PBS supplemented with 1 mM sodium orthovanadate and Complete protease inhibitor cocktail (Complete; Roche Molecular Biochemicals), and lysed with buffer (50 mM Tris-HCl, pH: 7.5, 100 mM NaCl, 1% Triton X-100, 4 μg/mL aprotinin, 100 μM phenylmethylsulfonyl fluoride, 200 μM sodium orthovanadate, 2 μg/mL leupeptin, 1 mM ditheiothreitol, and 1× Complete) at 4° C. for 15 minutes. Lysates were collected and centrifuged. Proteins were assayed (Bio-Rad Protein Assay Kit, Philadelphia, Pa., USA), and adjusted to 1 μg/μL (typically 800 to 1000 μg). Immunoprecipitation was preformed by incubating protein samples with the appropriate antibodies (typically 4 μg) or control non-immune sera at 4° C. overnight with gentle shaking. […] The immunoprecipitates were then analyzed by Western blotting in triplicates

caspase 3 = experiment: Western blot of caspase 3 activation in MH7A cells; format: cell-based
Procedure: as §2

MH7A cells [7] = experiment: Cell cycle analysis by PI staining and flow cytometry; format: cell-based; conditions: 5 μM As2O3, 24 hours
Procedure: Cell cycle analysis was performed as described (Pang et al., J. Pathol. 210:19-25, (2006)), Cells were trypsinized, washed twice with ice-cold PBS, re-suspended in 500 μL PBS, and stained with PI for 10 minutes on ice (DNA Prep™, Beckman Coulter). Cell cycle was determined by flow cytometry, and data analyzed by the WinMDI 2.8 software.

IL-6 receptor α gene = experiment: RT-PCR of IL-6 receptor α gene transcription in MH7A cells; format: cell-based; conditions: semi-quantitative RT-PCR
Procedure: as §1

p53 = experiment: Western blot of p53 phosphorylation at serine 46 in MH7A cells; format: cell-based; conditions: 5 μM As2O3
[8] = RA patients; cited from earlier work

Compound: IL-6: recombinant human IL-6 (Peprotech)
- effect of exogenous IL-6 on proliferation of MH7A cells (MH7A cells [1]; 72 hours): did not increase the proliferation

Compound: Arsenic trioxide [As2O3]
- GP130 gene transcription (GP130 gene; real-time quantitative PCR, 5 μM As2O3, 0-24 hours): no effect on GP130 gene transcription
- gp130 gene transcription (GP130 gene; semi-quantitative RT-PCR): no effect on the transcription of both genes
- annexin-V positive, propidium iodide negative (apoptotic) cells (MH7A cells [2]): 38.2%
- annexin-V positive, propidium iodide positive (dead) cells (MH7A cells [2]): 5.76%
- gp130 protein level (gp130 [3]; Western blot): dose and time dependent decrease of gp130
- IL-6 gene transcription (IL-6 gene): did not affect IL-6 gene transcription
- efficacy in relapsed acute promyelocytic leukemia [4]: highly efficacious
- inhibition of growth of MH7A cells (MH7A cells [1]; increasing concentrations, 24, 48 or 72 hours): dose and time dependent inhibition of growth
- IC50 (MH7A cells [1]; read-out: 50% inhibitory concentration, growth of MH7A cells, MTT assay, 24, 48 or 72 hours): ~5 µM
- JNK phosphorylation (JNK; 5 μM As2O3, 0-24 hours): significant increases in JNK phosphorylation
- QT prolongation [5]: minimal QT prolongation
- level of NFκB (NFκB): significantly decreased the level of NFκB
- IL-6 receptor α protein level (IL-6 receptor α): remaining unchanged
- gp130 ubiquitination (gp130 [6]): induced mono-ubiquitination of gp130; also recorded: gp130 is mono-ubiquitinated
- activation of caspase 3 (caspase 3): dose and time dependent activation of caspase 3
- cell cycle arrest (MH7A cells [7]): significant G2M arrest
- IL-6 receptor α gene transcription (IL-6 receptor α gene): no effect on the transcription of both genes
- p53 phosphorylation at serine 46 (p53): significantly increased p53 phosphorylation at serine 46

Compound: tocilizumab
- clinical effect in RA [8]: significant control of symptoms

Compound: COC(=O)C[C@H](NC(=O)[C@H](C)NC(=O)[C@@H](NC(=O)OCc1ccccc1)C(C)C)C(=O)CF [Z-VAD-FMK] (Cbz-Val-Ala-Asp(OMe)-CH2F)
- effect of pre-incubation with inhibitor on As2O3-induced decrease in gp130 (gp130 [3]): had no effect

Compound: CCC[C@@H](C=O)NC(=O)[C@H](CC(C)C)NC(=O)[C@H](CC(C)C)NC(=O)OCc1ccccc1 [MG115] (Cbz-Leu-Leu-[Nva]-aldehyde)
- effect of pre-incubation with inhibitor on As2O3-induced decrease in gp130 (gp130 [3]): had no effect

Compound: Cl.N [NH4Cl, ammonium chloride]
- effect of pre-incubation with inhibitor on As2O3-induced decrease in gp130 (gp130 [3]): significantly prevented
- effect of inhibitor on As2O3-induced JNK phosphorylation/activation (JNK; SP600125 30 μM, NH4Cl 2.5 mM): almost totally abrogated

Compound: infliximab
- clinical effect in RA [8]: significant improvement in joint inflammation and halts the progression of joint damage
